Laboratory results taken from patent US8647835B2, “Methods for separation, characterization and/or identification of microorganisms using spectroscopy” (bio Mérieux, Inc., priority 2008, dated 2014).

How the values were obtained:
Type in all cases: cell-based
[1] = system: Streptococcus pneumoniae, strain WM-43; assay: Gram stain and viability of S. pneumoniae recovered from pellet after detergent lysis buffer; details: for Viability of Pellet: 1:100 dilution plated onto Sheep Blood Agar, scale NG to 4+
Procedure: (§1) Lysis buffers were prepared containing detergents of differing structure and lytic activity in a base buffer formulation of 0.3M CAPS, pH 11.7. These lysis buffers were functionally assessed using positive blood culture broth containing a clinical microorganism strain known to be sensitive to detergents and alkaline pH conditions, Streptococcus pneumoniae, strain WM-43. Parameters evaluated were microbial intrinsic fluorescence levels (Excitation-Emission Matrix spectra), separation efficiency, appearance of isolated microbial pellet, and Gram stain characteristics and viability of microorganisms recovered from the pellet beneath the density cushion.
(§2) The procedure was performed as follows:
(§3) Mix 2 parts of positive broth with 1 part of test lysis buffer, incubate in a 37 C water bath for 1 minute to lyse blood cells, then layer 0.5 mL of lysate over 0.2 mL of density cushion (14% w/v Iohexyl+1.93% w/v NaCl+10 mM Hepes, pH 7.4) dispensed into a 2-piece optical separation tube which was then hermetically sealed with a screw-cap. After centrifuging the tube in an Eppendorf® 5417R micrcentrifuge fitted with a A-8-11 swing out rotor (Eppendorf, New York) for 2 minutes at 10,000 rpm, the tube was placed into a custom-built adapter which coupled the base of the tube directly to a 400 micron fiber optic probe connected to a spectrofluorimeter (Fluorolog® 3 (HORIBA Jobin Yvon Inc., New Jersey), and a complete EEM scan was taken (Ex 260-850 nm; Em 260-1100 nm; every 5 nm). Following the scan, the supernatant was removed and the microbial pellet resuspended in 0.5 mL of Tryptic Soy Broth (TSB). Smears of the suspensions were prepared for Gram staining and twenty microliters of a 1:100 dilution were plated onto Sheep Blood Agar plates for viability estimation on a scale of NG (no growth) to 4+ (maximal growth).

[2] = system: Streptococcus pneumoniae, strain WM-43; assay: Intrinsic fluorophores of S. pneumoniae pellet after detergent lysis buffer; details: for Flavin/NADH surrogate marker for viability: S. pneumoniae cell pellet; for Flavin / NADH / Tryptophan: intrinsic fluorophore level of S. pneumoniae cell pellet, detergent in 0.3M CAPS, pH 11.7; for NADH/Flavin: ratio of fluorescence signals of S. pneumoniae cell pellet
Procedure: as §1, §2, §3
The effect of the test detergents on the level of intrinsic fluorophores present within the S. pneumoniae cell pellet is shown in Table 5. As taught by the results presented in Example 3, the ratio of Flavin to NADH fluorescence is an excellent indicator of this sensitive microbe's health. Low ratios are associated with reduced microbial viability, such as observed with n-octyl glucoside and CHAPS detergents. The four groups represented in Table 5 fall into categories that directly correlate with the alterations observed in Gram reactivity of the S. pneumoniae cells recovered from the pellet (Table 4).

[3] = system: S. pneumoniae strain, WM43; assay: Viability of recovered S. pneumoniae with lysis buffer / density cushion combinations (Example 7); details: irrespective of the makeup of the density cushion

Molecule	Viability of Pellet [1]	Gram Stain of Pellet, Bacteria (cocci): Gram positive ([1]; detergent at table concentration (0.45-3.0%) in 0.3M CAPS, pH 11.7, 1 minute 37 C, 'No organisms seen' applies to all cocci)	Flavin/NADH surrogate marker for viability [2]	Flavin [2]	NADH [2]	Tryptophan [2]	NADH/Flavin [2]	Gram Stain of Pellet, Bacteria (cocci): Gram negative ([1]; detergent at table concentration (0.45-3.0%) in 0.3M CAPS, pH 11.7, 1 minute 37 C)	effect on Gram reaction / Gram reactivity of S. pneumoniae isolate ([1]; desired lysis conditions of Example 6)	viability of the recovered S. pneumoniae cells [3]
CCCCCCCCO[C@@H]1O[C@H](CO)[C@@H](O)[C@H](O)[C@H]1O [Detergent 1, n-octyl glucoside]	No growth	No organisms seen	Low ratios	71,678	33,268	606,171	0.5			
C[C@H](CCC(=O)NCCC[N+](C)(C)CCCS(=O)(=O)[O-])[C@H]1CC[C@H]2[C@@H]3[C@H](O)C[C@@H]4C[C@H](O)CC[C@]4(C)[C@H]3C[C@H](O)[C@]12C [Detergent 2, CHAPS]	Scant		Low ratios	77,403	55,976	607,343	0.7	Rare Gram		
CCCCCCCCCCCCOCCOCCOCCOCCOCCOCCOCCOCCOCCO [Detergent 6, nonaethylene glycol monododecyl ether]							34.5		relatively minor effect	not as high
(Octylphenoxy)polyethoxyethanol [Detergent 4]				38,703	1,300,815	1,019,649	33.6			
polyoxyethylene (20) oleyl ether [Detergent 12]			significant improvement	29,781	1,703,221	1,047,866	57.2			
